Experimental data reported in publication PMC6934184, “Selective DNA-PKcs inhibition extends the therapeutic index of localized radiotherapy and chemotherapy” (The Journal of Clinical Investigation, 2019).

Biological target: T1, HIPK1 (Myak) (Homo sapiens, UniProt Q86Z02)
T1 construct: purchased Thermo Fisher Scientific (Life Technologies) SelectScreen
Experiment: SelectScreen Z'LYTE
Assay type: biochemical
Summary of the method: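 NU5455 was profiled across the SelectScreen Broad panel of kinase activity and binding assays. Z'LYTE reactions such as CSF1R ran at apparent Km ATP, while the Adapta CAMK1 assay used ATP listed as 10. Values are given as percent.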

T1 sequence (Q86Z02 whole entry): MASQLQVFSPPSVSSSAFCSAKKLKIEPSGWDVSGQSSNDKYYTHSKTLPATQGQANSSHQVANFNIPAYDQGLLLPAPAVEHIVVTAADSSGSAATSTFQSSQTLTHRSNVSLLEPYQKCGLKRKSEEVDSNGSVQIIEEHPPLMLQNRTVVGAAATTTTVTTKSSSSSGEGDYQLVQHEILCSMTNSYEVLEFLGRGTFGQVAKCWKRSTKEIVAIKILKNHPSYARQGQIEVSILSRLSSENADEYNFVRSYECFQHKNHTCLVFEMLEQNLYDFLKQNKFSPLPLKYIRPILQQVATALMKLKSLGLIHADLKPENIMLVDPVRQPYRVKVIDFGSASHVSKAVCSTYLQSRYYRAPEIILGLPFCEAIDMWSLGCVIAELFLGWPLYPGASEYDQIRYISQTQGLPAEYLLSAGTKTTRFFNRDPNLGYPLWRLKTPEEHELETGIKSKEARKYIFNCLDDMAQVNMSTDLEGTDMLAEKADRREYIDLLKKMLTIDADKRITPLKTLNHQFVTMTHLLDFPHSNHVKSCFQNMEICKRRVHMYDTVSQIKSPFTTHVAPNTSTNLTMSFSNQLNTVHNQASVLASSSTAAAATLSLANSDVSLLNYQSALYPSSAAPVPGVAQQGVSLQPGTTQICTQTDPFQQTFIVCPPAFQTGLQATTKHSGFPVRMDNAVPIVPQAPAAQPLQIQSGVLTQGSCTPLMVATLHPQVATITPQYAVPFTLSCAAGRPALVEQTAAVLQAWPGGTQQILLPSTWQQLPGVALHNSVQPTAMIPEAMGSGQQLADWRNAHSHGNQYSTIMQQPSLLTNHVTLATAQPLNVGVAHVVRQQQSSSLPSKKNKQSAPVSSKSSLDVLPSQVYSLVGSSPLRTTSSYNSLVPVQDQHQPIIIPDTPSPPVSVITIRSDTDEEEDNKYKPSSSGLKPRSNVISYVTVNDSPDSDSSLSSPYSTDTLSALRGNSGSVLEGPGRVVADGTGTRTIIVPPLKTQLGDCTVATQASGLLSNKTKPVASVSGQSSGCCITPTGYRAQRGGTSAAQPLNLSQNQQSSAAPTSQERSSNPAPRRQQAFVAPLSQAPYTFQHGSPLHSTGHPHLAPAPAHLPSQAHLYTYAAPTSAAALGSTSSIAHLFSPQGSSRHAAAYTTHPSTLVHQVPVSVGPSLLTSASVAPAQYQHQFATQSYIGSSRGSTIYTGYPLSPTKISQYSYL

CN(C(=O)CN1CCOCC1)c1ccc2sc3c(-c4cccc5c(=O)cc(N6CC7CCC(C6)O7)oc45)cccc3c2c1 [NU5455]
inhibition at 1 µM: 2.8%
